Source: US20020156115A1, “Insecticidal and acaricidal composition, and methods of using the same” (AGRO-KANESHO CO., LTD., priority 1999, published 2002)

Legend:
Type in all cases: in vivo
[1] = test system: two-spotted red spiders (Tetranychus telarius); experiment: Acaricidal effect on two-spotted red spiders, imago-killing rate, 500 ppm leaf immersion; details: female imagoes on green bean leaf, leaf immersion about 5 seconds, concentration 500 ppm, fifth day after treatment, 25° C.
Experimental: (§1) Acaricidal Effect on Larvae of Two-Spotted Red Spiders (Tetranychus telarius): A stem of green bean seedling having only one primary left was placed in a test tube (capacity: 50 ml) containing water. 15 female imagoes of two-spotted red spiders were put on each leaf. One day after, the leaf having the two-spotted red spiders was immersed (about 5 seconds) in the present insecticide diluted with water, which had been prepared according to the Preparation Example, (concentration: 500 ppm, repetition: twice). They were kept in a constant-temperature room at 25° C. On the fifth day after the treatment, the female imagoes on the leaf of the green bean seedling were observed. The imago-killing rate (%) was determined on the basis of the results of the observation to obtain the results shown in Table 6.

[2] = test system: eggs of two-spotted red spiders (Tetranychus telarius); experiment: Acaricidal effect on eggs of two-spotted red spiders, ovicidal rate, 500 ppm spray; details: eggs on green bean leaf disc; spray 3.5 ml; concentration 500 ppm; 8 days after treatment
Experimental: Acaricidal Effect on Eggs of Two-Spotted Red Spiders (Tetranychus telarius) 5 female imagoes of two-spotted red spiders were released on a green been leaf disc (diameter: 3 cm). Then, the imagoes were left to lay eggs on the leaf disc for 20 hours and then removed therefrom. The present acaricide which had been prepared according to Preparation Example 1 was diluted with water to a predetermined concentration. 3.5 ml of the preparation thus obtained was sprayed with a rotary spraying column (Mizuho Rika) over the disc (concentration: 500 ppm, repetition: twice). 8 days after the treatment, the number of unhatched eggs was counted to determine the ovicidal rate (%).

[3] = test system: two-spotted red spiders (Tetranychus telarius); experiment: Acaricidal effect of a low concentration (12.5 ppm) on two-spotted red spiders; details: leaf immersion, female imagoes, fifth day after treatment, 25° C.
Experimental: as §1, with “A” for “Acaricidal Effect on Larvae of Two-Spotted Red Spiders (Tetranychus telarius): A”
Acaricidal Effect of a Low Concentration of Acaricide on Larvae of Two-Spotted Red Spiders (Tetranychus telarius)
The same tests as those of Test Example 2 were repeated except that the concentration of the acaricide was changed to 12.5 ppm.

Row | Structure (SMILES) | Acaricidal rate (%) [1] [%] | Ovicidal rate (%) [2] [%] | acaricidal effect [3] [%]
1 | CO/C=C(/C(=O)OC)c1c(OCc2cnc(OC(C)C(F)(F)F)s2)c(C)nn1C (racemic) [Table 2-19] | 100 | 100 | 
2 | CO/C=C(/C(=O)OC)c1c(C#Cc2cc(Cl)cc(Cl)c2)c(C)nn1C [Table 1-6] | 100 | 100 | 100
3 | CO/C=C(/C(=O)OC)c1c(C#Cc2cc(C)cc(C)c2)c(C)nn1C [Table 1-9] | 96 | 80 | 
4 | CCCc1nn(C)c(/C(=C\OC)C(=O)OC)c1C#Cc1cc(C(F)(F)F)cc(C(F)(F)F)c1 [Table 1-15] | 100 | 100 | 100
5 | CCCc1nn(C)c(/C(=C/OC)C(=O)OC)c1C#Cc1cc(C(F)(F)F)cc(C(F)(F)F)c1 [Table 1-16] | 100 | 100 | 100
6 | CO/C=C(/C(=O)OC)c1c(C#Cc2cc(C(F)(F)F)cc(C(F)(F)F)c2)c(C(C)(C)C)nn1C [Table 1-18] | 100 | 100 | 100
7 | CO/C=C(/C(=O)OC)c1c(C#Cc2cc(C(F)(F)F)cc(C(F)(F)F)c2)c(-c2ccccc2)nn1C [Table 1-19] | 100 | 100 | 100
8 | COC=C(C(=O)OC)c1c(C#Cc2cc(C(F)(F)F)cc(C(F)(F)F)c2)c(C(F)(F)F)nn1C [Table 1-20, Methyl α-[1-methyl-3-trifluoromethyl-4{3,5-bis(trifluoromethyl)phenylethynyl}-5-pyrazole]-β-methoxyacrylate] | 100 | 100 | 100
9 | CCc1nn(CC)c(/C(=C\OC)C(=O)OC)c1C#Cc1cc(C(F)(F)F)cc(C(F)(F)F)c1 [Table 1-28] | 100 | 100 | 100
10 | CO/C=C(/C(=O)OC)c1c(C#Cc2ccc(OC(F)F)cc2)c(C)nn1C [Table 1-30] | 100 | 100 | 100
11 | CO/C=C(/C(=O)OC)c1c(C#Cc2cc(C(F)(F)F)cc(C(F)(F)F)c2)c(-c2ccc(C(F)(F)F)cc2)nn1C [Table 1-36] |  |  | 100
12 | CCn1nc(C(F)(F)F)c(C#Cc2nc(OC(C)C)cc(C(F)(F)F)n2)c1/C(=C\OC)C(=O)OC [Table 1-37] | 100 | 100 | 100
13 | CCn1nc(C(F)(F)F)c(C#Cc2cc(C(F)(F)F)cc(C(F)(F)F)c2)c1/C(=C\OC)C(=O)OC [Table 1-39] | 100 | 100 | 100
14 | CCn1nc(C(F)(F)F)c(C#Cc2cc(C(F)(F)F)cc(C(F)(F)F)c2)c1/C(=C/OC)C(=O)OC [Table 1-40] | 100 | 100 | 100
15 | CO/C=C(/C(=O)OC)c1c(OCc2ccc(Oc3ccc(C(F)(F)F)cc3)cc2)c(C)nn1C [Table 2-2] | 100 | 100 | 
16 | CO/C=C(/C(=O)OC)c1c(OCc2cccc(Oc3cccc(C(F)(F)F)c3)c2)c(C)nn1C [Table 2-6] | 100 | 100 | 
17 | CO/C=C(/C(=O)OC)c1c(OCc2ccc(F)c(Oc3ccccc3)c2)c(C)nn1C [Table 2-7] | 100 | 100 | 
18 | CO/C=C(/C(=O)OC)c1c(OCc2cccc(Oc3ccc(Cl)cc3)c2)c(C)nn1C [Table 2-9] | 100 | 100 | 
19 | CO/C=C(/C(=O)OC)c1c(OCc2ccc(Oc3ccc(Cl)c(Cl)c3)cc2)c(C)nn1C [Table 2-10] | 100 | 100 | 
20 | CO/C=C(/C(=O)OC)c1c(OCc2cccc(Oc3ccc(C(F)(F)F)cc3Cl)c2)c(C)nn1C [Table 2-11] | 100 | 100 | 
21 | CO/C=C(/C(=O)OC)c1c(OCc2cccc(Oc3ccc(C)cc3)c2)c(C)nn1C [Table 2-12] | 100 | 100 | 
22 | CO/C=C(/C(=O)OC)c1c(OCc2ccc(Oc3ncc(C(F)(F)F)cc3Cl)cc2)c(C)nn1C [Table 2-13] | 100 | 100 | 
23 | CO/C=C(/C(=O)OC)c1c(OCc2sc(Oc3ccc(C(F)(F)F)cc3)nc2C)c(C)nn1C [Table 2-14] | 100 | 100 | 
24 | CO/C=C(/C(=O)OC)c1c(OCc2cc(C(C)(C)C)ccc2C)c(C)nn1C [Table 2-15] | 100 | 100 | 

Row | Structure (SMILES) | Acaricidal rate (%) [1] [%] | Ovicidal rate (%) [2] [%] | acaricidal effect [3] [%]
25 | CO/C=C(/C(=O)OC)c1c(OCc2ccc(Cl)c(Cl)c2)c(C)nn1C [Table 2-16] | 96 | 80 | 
26 | COC=C(C(=O)OC)c1c(OCc2ccc(Cl)cc2Cl)c(C)nn1C [Table 2-18] | 100 | 100 | 
27 | CO/C=C(/C(=O)OC)c1c(OCc2cccc(Oc3ccc(Cl)c(Cl)c3)c2)c(C)nn1C [Table 2-20] | 100 | 100 | 
28 | CO/C=C(/C(=O)OC)c1c(OCc2cccc(Oc3ccc(F)cc3)c2)c(C)nn1C [Table 2-21] | 100 | 100 | 
29 | CO/C=C(/C(=O)OC)c1c(OCc2cc(Cl)ccc2Cl)c(C)nn1C [Table 2-22] | 100 | 100 | 
30 | CO/C=C(/C(=O)OC)c1c(OCc2ccccc2C(F)(F)F)c(C)nn1C [Table 2-23] | 100 | 100 | 
31 | CO/C=C(/C(=O)OC)c1c(OCc2ccc(F)cc2C(F)(F)F)c(C)nn1C [Table 2-24] | 100 | 100 | 
32 | CO/C=C(/C(=O)OC)c1c(OCc2cc(C(F)(F)F)ccc2C(F)(F)F)c(C)nn1C [Table 2-25] | 100 | 100 | 
33 | CO/C=C(/C(=O)OC)c1c(OCc2cc(C(F)(F)F)cc(C(F)(F)F)c2)c(C(F)(F)F)nn1C [Table 2-26] | 100 | 100 | 100
34 | CO/C=C(/C(=O)OC)c1c(OCc2ccc(OC(F)(F)F)cc2)c(C(F)(F)F)nn1C [Table 2-29] | 100 | 100 | 
35 | CO/C=C(/C(=O)OC)c1c(OCc2ccc(OC(F)F)cc2)c(C(F)(F)F)nn1C [Table 2-30] | 100 | 100 | 
36 | CCc1nn(CC)c(/C(=C\OC)C(=O)OC)c1OCc1nc(OC(C)C)cc(C(F)(F)F)n1 [Table 2-32] | 100 | 100 | 
37 | CCc1nn(CC)c(/C(=C\OC)C(=O)OC)c1OCc1nc(Cl)cc(C(F)(F)F)n1 [Table 2-33] | 100 | 100 | 
38 | CO/C=C(/C(=O)OC)c1c(COc2ccc(C(F)(F)F)cc2)c(C)nn1C [Table 3-61] | 100 | 100 | 
39 | CO/C=C(/C(=O)OC)c1c(COc2ccc(OC(F)(F)F)cc2)c(C)nn1C [Table 3-63] | 100 | 100 | 
40 | CO/C=C(/C(=O)OC)c1c(CSc2ccc(C(F)(F)F)cc2)c(C)nn1C [Table 3-66] | 100 | 100 | 
41 | CCc1nn(C)c(/C(=N\OC)C(=O)NC)c1CON=C(C)c1ccc(OC(F)(F)F)cc1 [Table 3-75] | 100 | 100 | 
42 | CO/N=C(/C(=O)OC)c1c(CON=C(C)c2ccc(C(F)(F)F)cc2)c(C)nn1C [Table 3-90] | 100 | 100 | 
43 | CNC(=O)C(=NOC)c1c(CON=C(C)c2ccc(C(F)(F)F)cc2)c(C)nn1C [Table 3-92] | 100 | 100 | 
44 | CO/C=C(/C(=O)OC)c1c(CON=C(C)c2cccc(OC(F)F)c2)c(C)nn1C [Table 3-102] | 100 | 100 | 
45 | C#CCN(C(=O)OC)c1c(OCc2ccccc2)c(C)nn1C [Table 4-23] | 100 | 100 | 
46 | C#CCN(C(=O)OC)c1c(OCc2cc(Cl)ccc2Cl)c(C)nn1C [Table 4-40] | 100 | 100 | 
47 | C#CCN(C(=O)OC)c1c(OCc2cccc(OCc3ccccc3)c2)c(C)nn1C [Table 4-85] | 100 | 100 | 
